Columns and labels:
HCT-116 MCCs [1] = assay: MCC penetration assay, effect-based (BrdUrd S-phase labeling after exposure from one side); type: cell-based, human; conditions: for decrease in drug exposure seen by cells on the far side relative to the near side / trend of BrdUrd labeling with drug concentration: 1 day after 1-h exposure; for decrease in drug exposure seen by cells on the far side relative to the near side: near-side concentration matching the effect of 10 μM on the far side; for trend of BrdUrd labeling with drug concentration: first 30 μm of tissue
Method: Standard tissue culture inserts 10 (CM 12 mm, pore size 0.4 μm, Millipore, Nepean, ON, Canada) were coated with 150 μl collagen (rat tail type I, Sigma), dissolved in 0.01 M HCl and diluted 1:4 with 60% Ethanol to 0.75 mg/ml, and allowed to dry over night. HCT-116, 0.75×10^6 in 0.5 ml growth media, were then added to the inserts 10 and incubated for 15 hours to allow the cells to attach. The cultures 16 were then incubated for 2 days in custom built growth vessels 21 (FIG. 1(b)) to form multilayered cell cultures (MCCs) 16 which are ˜150 μm in thickness. Each growth vessel 21 includes a frame 23 that held the inserts 10 completely immersed in 130 ml of stirred media (700 rpm, 25 mm stir bar) under continual gassing (5% CO2, balance air) at 37° C. The MCCs 16 were grown in batches of 8 cultures of which 6 were treated with drug and 2 were kept as untreated controls.
MCCs 16 were exposed to anthracyclines from one exposed side 18 using a polyarcylate apparatus 22 (FIG. 2) designed such that the bottom of each insert 10 is clamped against a flat block 24 of apparatus 22 with a layer of Parafilm (American National Can, Chicago, Ill., USA) sandwiched in between to ensure a complete seal. Each MCC 16 was exposed to a 7.5 ml stirred reservoir 28 kept under controlled gassing and temperature. A silicone O-ring 34 was used to seal the gap between the MCC 16 and the orifice in the reservoir 28. Once placed in the apparatus 22, MCCs 16 were allowed to equilibrate for 45 minutes, drug was then added to the growth medium at concentrations of 0.3, 1, 3 and 10 μM. After 1-hour drug exposure, the reservoirs 28 were rinsed twice with fresh media. MCCs 16 were then incubated for a second hour prior to removal from the apparatus 22 to allow initial drug wash out from the exposed side 18 only. MCCs 16 were then removed, rinsed in fresh media three times for 15 seconds and placed in a growth vessel 21 containing 2 untreated control MCCs 16. Media was replaced at 1 and 4 hours following return to the growth vessel 21, to reduce residual drug levels. Incubation with control MCCs 16 ruled out the possibility that drug wash out into the media from the exposed sides 18 of the MCCs 16 was affecting results. MCCs 16 were left for 1 or 3 days from the time of beginning drug exposure to allow manifestation of drug effect. Following this, 100 μM BrdUrd (5-bromo-2-deoxyuridine, Sigma Chemical, Oakville, ON, Canada) was added to the media and cultures incubated for 4 hours to label S-phase cells. MCCs 16 were then removed, frozen in O.C.T. medium (Tissue-TEK, Torrance, Calif., USA) and stored at −80° C. until sectioning.
MCC cryosections (10 μm) were air dried for 24 hours and then fixed in a 1:1 mixture of acetone-methanol for 10 minutes at room temperature. Slides were immediately transferred to distilled water for 10 minutes and then treated with 2 M HCl at room temperature for 1 hour followed by neutralization for 5 minutes in 0.1 M Sodium Borate. Slides were then washed in distilled water and transferred to a PBS (phosphate buffered saline) bath. Subsequent steps were each followed by a 5 minute wash in PBS. BrdUrd incorporated into DNA was detected using a 1:200 dilution of monoclonal mouse anti-BrdUrd (clone BU33, Sigma) followed by 1:100 dilution of anti-mouse peroxidase conjugate antibody (Sigma) and 1:10 dilution of metal enhanced DAB substrate (Pierce, Rockford, Ill.). Slides were then counterstained with haematoxylin, dehydrated and mounted using Permount (Fisher Scientific, Fair Lawn, N.J., USA).
The imaging system consisted of a flurouresence microscope (Zeiss III RS, Oberkochen, Germany), a cooled, monochrome CCD video camera (model 4922, Cohu, San Diego, Calif., USA), frame grabber (Scion, Frederick, Md., USA), a custom built motorized x-y stage and customized NIH-Image software (public domain program developed at the U.S. National Institutes of Health) running on a G4 Macintosh computer. […]

[2] = system: multi-layered cell culture; assay: Example 1: BrdUrd labeling in multi-layered cell culture exposed from one side; type: cell-based; conditions: one hour exposure from one side, 24 hours in fresh media; 5, 10 and 100 μM
Method: FIGS. 5 and 6 illustrate test results relating to a multi-layered cell culture 16 exposed to the anthracycline doxorubicin (DOX) (i.e. the test material). Cultures 16 were exposed to doxorubicin (at differing concentrations) from one side 18 only for one hour and then incubated for 24 hours in fresh media. Cultures 16 were then exposed to bromodeoxyuridine (BrdUrd) for two hours to label proliferating cells. BrdUrd is a thymidine analogue that is incorporated into DNA during the S phase of the cell cycle and is therefore an effective marker of cellular proliferation. Following BrdUrd exposure, cultures 16 were frozen and cyrosections taken from them. Cryosections were then immunostained to detect BrdUrd labeled S-phase cells. FIG. 6 illustrates the distribution of BrdUrd-labelled cells as a function of position within the cultures. The results clearly indicate that tissue penetration limits doxorubicin effectiveness.

[3] = weak bases; cited from earlier work
[4] = system: V79 multicellular spheroids; conditions: ~3.5 μM×h exposure, 24 hours in drug free medium before disaggregation; cited from earlier work
HCT-116 MCCs [5] = assay: Fluorescence based evaluation of anthracycline penetration in MCCs; type: cell-based, human; conditions: immediately after 1-h, 10 µM drug exposure
Method: MCCs 16 were exposed to anthracyclines from one exposed side 18 using a polyarcylate apparatus 22 (FIG. 2) designed such that the bottom of each insert 10 is clamped against a flat block 24 of apparatus 22 with a layer of Parafilm (American National Can, Chicago, Ill., USA) sandwiched in between to ensure a complete seal. Each MCC 16 was exposed to a 7.5 ml stirred reservoir 28 kept under controlled gassing and temperature. A silicone O-ring 34 was used to seal the gap between the MCC 16 and the orifice in the reservoir 28. […] After 1-hour drug exposure, the reservoirs 28 were rinsed twice with fresh media. […]
The imaging system consisted of a flurouresence microscope (Zeiss III RS, Oberkochen, Germany), a cooled, monochrome CCD video camera (model 4922, Cohu, San Diego, Calif., USA), frame grabber (Scion, Frederick, Md., USA), a custom built motorized x-y stage and customized NIH-Image software (public domain program developed at the U.S. National Institutes of Health) running on a G4 Macintosh computer. […] For drug fluorescence visualization, MCCs were imaged using unmounted cryosections 1-hour after sectioning using a 510-555 nm excitation filter and a 575-640 nm emission filter.
Using the NIH-Image software application and user supplied algorithms, digital images of BrdUrd staining and drug fluorescence within MCC cryosections were analyzed in the following manner. […]

cells = conditions: uptake rate vs DOX; cited from earlier work

COc1cccc2c1C(=O)c1c(O)c3c(c(O)c1C2=O)C[C@@](O)(C(=O)CO)C[C@@H]3O[C@H]1C[C@H](N)[C@H](O)[C@H](C)O1 [DOX, doxorubicin]
decrease in drug exposure seen by cells on the far side relative to the near side (HCT-116 MCCs [1]): ~12 fold
trend of BrdUrd labeling with drug concentration (HCT-116 MCCs [1]): decreasing labeling with increasing drug concentration
effect on proliferating cells as a function of position within the culture [2]: at low concentrations doxorubicin only affects cells close to the site of exposure
pKa [3]: ~8.3
surviving fraction, 130 μm into the tissue [4]: ~0.6
surviving fraction, exposed outer layers [4]: ~0.2

COc1cccc2c1C(=O)c1c(O)c3c(c(O)c1C2=O)C[C@@](O)(C(=O)CO)C[C@@H]3O[C@H]1C[C@H](N)[C@@H](O)[C@H](C)O1 [EPI, epirubicin]
concentration at which an equal effect is exerted on either edge of the MCC (HCT-116 MCCs [1]; 1 hour exposure at 0.3, 1, 3 and 10 μM, 1 day incubation): 10 µM
decrease in drug exposure seen by cells on the far side relative to the near side (HCT-116 MCCs [1]): ~10 fold
trend of BrdUrd labeling with drug concentration (HCT-116 MCCs [1]): decreasing labeling with increasing drug concentration
fluorescence level on the near side relative to DOX (HCT-116 MCCs [5]): ~1.5 times
pKa [3]: ~8.1
rate of entering cells relative to DOX (cells): approximately twice

COc1cccc2c1C(=O)c1c(O)c3c(c(O)c1C2=O)C[C@@](O)(C(C)=O)C[C@@H]3O[C@H]1C[C@H](N)[C@H](O)[C@H](C)O1 [DAU, daunorubicin]
decrease in drug exposure seen by cells on the far side relative to the near side (HCT-116 MCCs [1]): ~30 fold
trend of BrdUrd labeling with drug concentration (HCT-116 MCCs [1]): decreasing labeling with increasing drug concentration
fluorescence level on the near side relative to DOX (HCT-116 MCCs [5]): ~7 times
pKa [3]: ~8.3
rate of entering cells relative to DOX (cells): 3-10 times

O=C1c2c(O)ccc(O)c2C(=O)c2c(NCCNCCO)ccc(NCCNCCO)c21 [MIT, mitoxantrone]
decrease in drug exposure seen by cells on the far side relative to the near side (HCT-116 MCCs [1]): greater than 30 fold
trend of BrdUrd labeling with drug concentration (HCT-116 MCCs [1]): increase in labeling on the near side with increasing drug concentration
pKa [3]: ~8.3
